Source: patent publication US20170152269A1, “FUSED BICYCLIC COMPOUNDS AND THEIR USE AS CDK INHIBITORS” (priority 2016, published 2017)

What was measured:
CDK1 = target: T1, CDK1 (Homo sapiens, UniProt P06493); test: Lance TR-FRET kinase assay, CDK1; format: biochemical; conditions: ATP 30 μM, 60 min, read-out: CDK 1 inhibitory activity (IC50)
T1 construct: purchased ThermoFisher (Waltham, Mass.)
Experimental: (§1) Time Resolved-Fluorescent Resonance Energy Transfer (TR-FRET) was used to determine inhibitory ability of compounds A1˜A19, B1s and B1˜B12 against the enzymatic activity of CDK1, CDK2, CDK4, CDK5, CDK6, CDK7, and CDK9.
(§2) Inhibitory activity of compounds against CDK1/2/4/5/6/7 was assessed using Lance TR-FRET assay kits from Perkin Elmer Life Sciences (Waltham, Mass.). CDK1/2/4/5/6/7 enzymes were purchased from ThermoFisher (Waltham, Mass.). 2.5 μL of compound solutions and 2.5 μL of enzyme solutions in kinase assay buffer, which was 50 mM HEPES (pH 7.5) with 1 mM EGTA, 1 mM MgCl2, 2 mM DTT, and 0.01% Tween-20, were added into a white OptiPlate-384 plate followed by adding 5 μL of fluorescently labeled peptide substrates (Ulight-4E-BP1 for CDK4/6 and Ulight-MBP for CDK1/2/7/9) and ATP mixture solutions. Final concentrations of substrates and DMSO were 100 nM and 0.5%, respectively. Concentrations of ATP and different CDK enzymes were adjusted accordingly to achieve optimal enzymatic activities. Final CDK concentrations were 100, 500, 600, 100, 50, and 200 ng/well and ATP concentrations were 30, 50, 100, 20, 100, and 50 μM for CDK1/2/4/5/6/7, respectively. Assay plates were covered to protect from light and spun for 1 min at 700 RPM. Reactions were allowed to perform for 60 minutes in dark with gentle shaking at room temperature after which 5 μL of 40 mM EDTA in detection buffer was added to stop reactions followed 5 μL of the Eu labeled antibodies giving final concentrations of 2 nM to detect the phosphorylation of the peptide substrates. Assay plates were read with the EnVision™ Multilabel Reader in TR-FRET mode (excitation at 320 nm and emission at 665 nm). The percent of inhibition was calculated from the means of data points using the formula: 100−(Signalcompound−NoSignalbackground)*100/(Signalvehicle−NoSignalbackground). The IC50s were determined with GraphPad Prism by the non-linear sigmoidal curve fitting of data from 10 doses.

CDK2 = target: T2, CDK2 (Homo sapiens, UniProt P24941); test: Lance TR-FRET kinase assay, CDK2; format: biochemical; conditions: ATP 50 μM, 60 min, read-out: CDK 2 inhibitory activity (IC50)
T2 construct: purchased ThermoFisher (Waltham, Mass.)
Experimental: as §1, §2

CDK4 = target: T3, CDK4 (Homo sapiens, UniProt P11802); test: Lance TR-FRET kinase assay, CDK4; format: biochemical; conditions: ATP 100 μM, 60 min, read-out: CDK 4 inhibitory activity (IC50)
T3 construct: purchased ThermoFisher (Waltham, Mass.)
Experimental: as §2, with “2.5 μL of compound solutions and 2.5 μL of enzyme solutions in kinase assay buffer, which was 50 mM HEPES (pH 7.5) with 1 mM EGTA, 1 mM MgCl2, 2 mM DTT, and 0.01% Tween-20, were added into a white OptiPlate-384 plate followed by adding 5 μL of fluorescently labeled peptide substrates (Ulight-4E-BP1 for CDK4/6 and Ulight-MBP for CDK1/2/7/9) and ATP mixture solutions.” left out, “Assay plates were read with the EnVision™ Multilabel Reader in TR-FRET mode (excitation at 320 nm and emission at 665 nm).” left out

CDK6 = target: T4, CDK6 (Homo sapiens, UniProt Q00534); test: Lance TR-FRET kinase assay, CDK6; format: biochemical
T4 construct: purchased ThermoFisher (Waltham, Mass.)
Experimental: as §1, §2

CDK7 = target: T5, CDK7 (Homo sapiens, UniProt P50613); test: Lance TR-FRET kinase assay, CDK7; format: biochemical; conditions: ATP 50 μM, 60 min; for IC50: read-out: CDK 7 inhibitory activity (IC50)
T5 construct: purchased ThermoFisher (Waltham, Mass.)
Experimental: as §2, with “2.5 μL of compound solutions and 2.5 μL of enzyme solutions in kinase assay buffer, which was 50 mM HEPES (pH 7.5) with 1 mM EGTA, 1 mM MgCl2, 2 mM DTT, and 0.01% Tween-20, were added into a white OptiPlate-384 plate followed by adding 5 μL of fluorescently labeled peptide substrates (Ulight-4E-BP1 for CDK4/6 and Ulight-MBP for CDK1/2/7/9) and ATP mixture solutions.” left out, “Assay plates were read with the EnVision™ Multilabel Reader in TR-FRET mode (excitation at 320 nm and emission at 665 nm).” left out

CDK9/cyclin T1 = target: T6, CDK9/cyclin T1 (Homo sapiens, UniProt P50750); test: LanthaScreen Eu kinase binding assay, CDK9; conditions: tracer 236 displacement, CDK9/cyclin T1 5 nM, 1 hour; read-out: CDK 9 inhibitory activity (IC50)
T6 construct: purchased ThermoFisher (Waltham, Mass.)
Experimental: as §1
The CDK9 kinase inhibitory activity of compounds was tested in the LanthaScreen Eu kinase binding assay from ThermoFisher. LanthaScreen® Eu Kinase binding assays are based on the binding and displacement of a proprietary, Alexa Fluor® 647-labeled, ATP-competitive kinase inhibitor scaffold (kinase tracer) to CDK9. CDK9/cyclin T1, Kinase tracer 236 and LanthaScreen® Eu-anti-His Antibody were purchased form ThermoFisher (Waltham, Mass.). 5 μL of CDK9/cyclin T1 (final 5 nM)/antibody (final 2 nM) mixture, 5 μL of compound in kinase buffer, and 5 μL of tracer (final 30 nM) were added to wells of a white OptiPlate-384 plate in this specific order. Assay plates were covered to protect from light, spun for 1 min at 700 RPM and incubated at room temperature for 1 hour. Assay plates were read with the EnVision™ Multilabel Reader in TR-FRET mode (excitation at 320 nm and emission at 665 nm). The percent of inhibition was calculated from the means of data points using the formula: 100−(Signalcompound−NoSignalbackgound)*100/(Signalvehicle−NoSignalbackground). The IC50s were determined with GraphPad Prism by the non-linear sigmoidal curve fitting of data from 10 doses.

T5 sequence (P50613 whole entry): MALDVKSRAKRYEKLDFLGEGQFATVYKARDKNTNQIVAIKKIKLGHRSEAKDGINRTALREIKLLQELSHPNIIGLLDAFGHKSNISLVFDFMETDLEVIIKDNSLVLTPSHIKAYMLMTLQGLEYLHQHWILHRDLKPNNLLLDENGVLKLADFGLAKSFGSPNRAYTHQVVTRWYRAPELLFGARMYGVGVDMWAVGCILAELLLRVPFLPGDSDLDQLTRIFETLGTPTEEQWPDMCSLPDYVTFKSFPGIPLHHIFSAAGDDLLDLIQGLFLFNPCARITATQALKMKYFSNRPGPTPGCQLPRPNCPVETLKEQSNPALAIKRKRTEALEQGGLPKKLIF
T5 sequence (P51946 whole entry partner): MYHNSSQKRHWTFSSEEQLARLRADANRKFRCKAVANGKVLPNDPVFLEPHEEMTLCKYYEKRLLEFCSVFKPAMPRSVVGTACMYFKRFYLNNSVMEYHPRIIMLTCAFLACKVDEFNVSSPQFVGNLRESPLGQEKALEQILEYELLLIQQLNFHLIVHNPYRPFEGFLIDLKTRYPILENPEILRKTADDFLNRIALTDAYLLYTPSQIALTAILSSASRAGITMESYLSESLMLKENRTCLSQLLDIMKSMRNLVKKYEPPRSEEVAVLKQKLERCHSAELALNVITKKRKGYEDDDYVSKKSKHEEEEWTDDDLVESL
T5 sequence (P51948 whole entry partner): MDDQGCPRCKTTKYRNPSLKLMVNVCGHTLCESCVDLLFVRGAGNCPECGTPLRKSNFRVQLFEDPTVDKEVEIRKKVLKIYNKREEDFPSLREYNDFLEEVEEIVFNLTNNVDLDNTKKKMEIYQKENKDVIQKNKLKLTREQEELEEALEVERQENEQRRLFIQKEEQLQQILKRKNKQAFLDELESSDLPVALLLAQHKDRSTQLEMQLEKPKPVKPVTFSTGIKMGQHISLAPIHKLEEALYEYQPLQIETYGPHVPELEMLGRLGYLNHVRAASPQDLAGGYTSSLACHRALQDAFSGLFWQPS
T6 sequence (P50750 whole entry): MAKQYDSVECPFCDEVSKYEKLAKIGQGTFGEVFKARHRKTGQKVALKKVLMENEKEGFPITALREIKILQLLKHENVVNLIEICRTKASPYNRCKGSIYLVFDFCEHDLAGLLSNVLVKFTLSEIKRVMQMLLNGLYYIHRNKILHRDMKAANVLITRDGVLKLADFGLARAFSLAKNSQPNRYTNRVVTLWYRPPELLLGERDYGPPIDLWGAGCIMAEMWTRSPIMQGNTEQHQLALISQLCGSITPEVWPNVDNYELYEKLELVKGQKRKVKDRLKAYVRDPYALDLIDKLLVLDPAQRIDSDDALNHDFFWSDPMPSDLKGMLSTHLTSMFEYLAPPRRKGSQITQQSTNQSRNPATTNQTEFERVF
T6 sequence (O60563 whole entry partner): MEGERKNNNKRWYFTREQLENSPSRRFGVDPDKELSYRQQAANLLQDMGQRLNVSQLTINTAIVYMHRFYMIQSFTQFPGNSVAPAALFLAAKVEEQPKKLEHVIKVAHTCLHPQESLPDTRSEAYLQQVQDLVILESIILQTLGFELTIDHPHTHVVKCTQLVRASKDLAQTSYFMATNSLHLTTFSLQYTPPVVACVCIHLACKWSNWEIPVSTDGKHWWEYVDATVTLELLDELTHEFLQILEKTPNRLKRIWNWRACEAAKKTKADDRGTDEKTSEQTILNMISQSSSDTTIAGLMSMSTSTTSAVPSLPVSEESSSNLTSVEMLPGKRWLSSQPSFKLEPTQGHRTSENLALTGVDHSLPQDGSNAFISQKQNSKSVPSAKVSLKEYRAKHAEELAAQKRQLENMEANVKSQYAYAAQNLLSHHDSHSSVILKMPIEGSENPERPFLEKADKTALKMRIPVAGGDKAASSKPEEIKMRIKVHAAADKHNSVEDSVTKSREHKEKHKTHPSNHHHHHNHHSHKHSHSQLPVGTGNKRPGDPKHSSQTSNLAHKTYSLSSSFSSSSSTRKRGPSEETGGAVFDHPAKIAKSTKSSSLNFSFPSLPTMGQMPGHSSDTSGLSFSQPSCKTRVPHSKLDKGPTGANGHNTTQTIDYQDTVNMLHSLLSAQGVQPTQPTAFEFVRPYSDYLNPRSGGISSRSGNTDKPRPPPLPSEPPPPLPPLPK
T1 sequence (P06493 whole entry): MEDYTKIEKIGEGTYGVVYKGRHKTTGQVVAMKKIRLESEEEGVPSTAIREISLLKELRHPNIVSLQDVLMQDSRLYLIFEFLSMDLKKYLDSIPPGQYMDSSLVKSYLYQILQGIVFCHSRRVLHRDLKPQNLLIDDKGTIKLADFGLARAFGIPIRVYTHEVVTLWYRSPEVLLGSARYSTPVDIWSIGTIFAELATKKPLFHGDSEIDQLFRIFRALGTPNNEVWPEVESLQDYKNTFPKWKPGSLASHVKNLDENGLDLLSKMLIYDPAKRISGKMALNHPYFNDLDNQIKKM
T1 sequence (P14635 whole entry partner): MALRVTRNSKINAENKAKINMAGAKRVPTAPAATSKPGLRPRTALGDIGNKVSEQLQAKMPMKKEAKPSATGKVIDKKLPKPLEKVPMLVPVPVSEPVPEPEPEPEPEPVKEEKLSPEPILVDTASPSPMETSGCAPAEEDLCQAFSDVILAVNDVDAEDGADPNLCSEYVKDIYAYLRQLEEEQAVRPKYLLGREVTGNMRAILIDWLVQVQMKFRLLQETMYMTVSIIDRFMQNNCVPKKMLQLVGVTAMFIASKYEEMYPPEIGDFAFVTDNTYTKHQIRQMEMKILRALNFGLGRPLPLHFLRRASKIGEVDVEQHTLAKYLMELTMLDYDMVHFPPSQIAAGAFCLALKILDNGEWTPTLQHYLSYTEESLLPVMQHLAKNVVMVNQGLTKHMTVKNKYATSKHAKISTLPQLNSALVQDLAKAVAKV
T3 sequence (P11802 whole entry): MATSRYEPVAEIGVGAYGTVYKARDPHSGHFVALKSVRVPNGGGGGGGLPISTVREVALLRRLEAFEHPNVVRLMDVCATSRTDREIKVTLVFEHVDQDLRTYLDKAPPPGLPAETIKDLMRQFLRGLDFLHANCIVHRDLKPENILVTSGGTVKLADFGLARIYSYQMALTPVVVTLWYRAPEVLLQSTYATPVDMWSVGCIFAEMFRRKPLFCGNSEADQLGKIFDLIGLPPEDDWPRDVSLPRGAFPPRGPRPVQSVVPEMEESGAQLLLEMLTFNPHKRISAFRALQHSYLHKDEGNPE
T3 sequence (P24385 whole entry partner): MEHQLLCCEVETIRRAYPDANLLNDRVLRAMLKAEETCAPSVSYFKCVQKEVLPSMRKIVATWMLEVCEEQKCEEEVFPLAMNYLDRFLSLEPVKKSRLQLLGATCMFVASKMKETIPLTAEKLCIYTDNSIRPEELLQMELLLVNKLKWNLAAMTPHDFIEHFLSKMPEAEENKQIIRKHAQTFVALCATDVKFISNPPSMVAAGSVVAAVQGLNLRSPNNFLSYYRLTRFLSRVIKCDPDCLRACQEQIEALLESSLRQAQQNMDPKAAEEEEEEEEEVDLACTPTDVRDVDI
T4 sequence (Q00534 whole entry): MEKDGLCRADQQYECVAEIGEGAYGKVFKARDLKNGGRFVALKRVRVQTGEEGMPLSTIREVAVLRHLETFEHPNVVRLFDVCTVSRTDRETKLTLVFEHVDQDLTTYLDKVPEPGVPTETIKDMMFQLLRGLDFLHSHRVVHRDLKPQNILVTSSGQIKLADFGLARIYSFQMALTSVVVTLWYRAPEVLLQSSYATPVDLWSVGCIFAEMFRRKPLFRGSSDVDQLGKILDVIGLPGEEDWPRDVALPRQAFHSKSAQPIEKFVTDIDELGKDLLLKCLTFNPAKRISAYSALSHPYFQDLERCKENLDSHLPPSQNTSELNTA
T4 sequence (P24385 whole entry partner): as the sequence (P24385 whole entry partner) above

Row | IC50 (CDK7) [nM] | Structure (SMILES) | IC50 (CDK1) [nM] | IC50 (CDK2) [nM] | IC50 (CDK4) [nM] | IC50 (CDK6) [nM] | IC50 (CDK9/cyclin T1) [nM] | CDK 7 inhibitory activity (IC50) (CDK7)
1 | 31.4 | N#Cc1sc2cnc(Nc3ccc(N4CCNCC4)cc3)cc2c1C1CCCC1 [Compound B3, 3-cyclopentyl-5-((4-(piperazin-1-yl)phenyl)amino)thieno[2,3-c]pyridine-2-carbonitrile] | 15.1 | 5.2 | 1.9 | 0.2 | 1.8 | –
2 | 47 | CN1CCN(c2ccc(Nc3cc4c(C5CCCC5)c(C#N)sc4cn3)cc2)CC1 [Compound B4, 3-cyclopentyl-5-((4-(4-methylpiperazin-1-yl)phenyl)amino)thieno[2,3-c]pyridine-2-carbonitrile] | 31.5 | 10.4 | 1.9 | 0.7 | 8.6 | –
3 | 22.1 | CN1CCN(c2ccc(Nc3cc4c(C5CCCC5)c(C#N)sc4cn3)nc2)CC1 [Compound B5, 3-cyclopentyl-5-((5-(4-methylpiperazin-1-yl)pyridin-2-yl)amino)thieno[2,3-c]pyridine-2-carbonitrile] | 9.1 | 3.3 | 0.7 | 0.3 | 1 | –
4 | 872 | CN1CCN(c2cccc(Nc3cc4c(C5CCCC5)c(C#N)sc4cn3)c2)CC1 [Compound B9, 3-cyclopentyl-5-((3-(4-methylpiperazin-1-yl)phenyl)amino)thieno[2,3-c]pyridine-2-carbonitrile] | 170 | 70.8 | 582 | 120 | 96.5 | –

More lines, now with the values behind:

Row | Structure (SMILES) | IC50 (CDK7) [nM] | IC50 (CDK1) [nM] | IC50 (CDK2) [nM] | IC50 (CDK4) [nM] | IC50 (CDK6) [nM] | IC50 (CDK9/cyclin T1) [nM] | CDK 7 inhibitory activity (IC50) (CDK7)
5 | N#Cc1sc2cnc(Nc3ccc(N4CCNCC4)nc3)cc2c1C1CCCC1 [Compound B2, 3-cyclopentyl-5-((6-(piperazin-1-yl)pyridin-3-yl)amino)thieno[2,3-c]pyridine-2-carbonitrile] | 53.9 | 77.4 | 13.3 | 2.4 | 1 | 6.6 | –
6 | N#Cc1sc2cnc(Nc3ccc(N4CCOCC4)cc3)cc2c1C1CCCC1 [Compound B6, 3-cyclopentyl-5-((4-morpholinophenyl)amino)thieno[2,3-c]pyridine-2-carbonitrile] | – | 1680 | 39.6 | 222 | 19 | 951 | inactive
7 | N#Cc1sc2cnc(Nc3ccc(N4CCOCC4)nc3)cc2c1C1CCCC1 [Compound B7, 3-cyclopentyl-5-((6-morpholinopyridin-3-yl)amino)thieno[2,3-c]pyridine-2-carbonitrile] | – | 324 | 19.4 | 61.9 | 19.4 | 95.6 | inactive
8 | N#Cc1sc2cnc(Nc3cnc(N4CCOCC4)nc3)cc2c1C1CCCC1 [Compound B8, 3-cyclopentyl-5-((2-morpholinopyrimidin-5-yl)amino)thieno[2,3-c]pyridine-2-carbonitrile] | – | 22000 | 824 | 8660 | 791 | 4590 | inactive
9 | N#Cc1sc2cnc(Nc3cccc(N4CCOCC4)c3)cc2c1C1CCCC1 [Compound B10, 3-cyclopentyl-5-((3-morpholinophenyl)amino)thieno[2,3-c]pyridine-2-carbonitrile] | – | 834 | 308 | 1540 | 838 | 308 | inactive
10 | CS(=O)(=O)N1CCN(c2ccc(Nc3cc4c(C5CCCC5)c(C#N)sc4cn3)nc2)CC1 [Compound B11, 3-cyclopentyl-5-((5-(4-(methylsulfonyl)piperazin-1-yl)pyridin-2-yl)amino)thieno[2,3-c]pyridine-2-carbonitrile] | – | 101 | 49.9 | 17.7 | 5.5 | 8.1 | inactive
